Entries after “also recorded” stand apart in the source; their conditions may differ.
Tests used:
[1] = Storage stability of the salt; type: physicochemical; settings: -20 ° C.; dihydrochloride salt
Experimental: Compound 25 (110 mg, 0.22 mmol) was refluxed for 1 h with thionyl chloride (1 mL) in chloroform (4 mL). The volatile material was removed in vacuo, and the residue was basified with aqueous Na2 CO3 (pH 10) and washed immediately with ether to completely remove the non polar impurity (TLC CHCl3 /CH3 OH/NH4 OH: 9/1/0.1, Rf 0.4). The product was extracted into CHCl3 from the cold aqueous phase and the combined CHCl3 layers were concentrated in vacuo and acidified using ether/HCl. The precipitate was dried in vacuo to yield 29 mg of 26 (25%) as a white solid: mp 188°-190° C.; 1H NMR (D20, HCl salt) δ 3.00-4.00 (m, 14 H), 7.50-7.70 (m, 3 H), 7.70-7.90 (m, 3 H), 8.40 (s, 1 H); MS (CI/NH3) m/e 400 (MH+), 212 (base), 364, 338. […] The salt was stable upon storage at -20 ° C. for at least 6 months.

[2] = system: m1 through m4 muscarinic receptors; assay: Displacement of [3H]NMS from muscarinic receptors (m1-m4), subtype not singled out; type: binding; settings: in words
From the text: The analogues were screened in binding assays using membranes from cells or tissues containing primarily single subtypes of m1 through m4 muscarinic receptors. Transfected A9L cells were used as a source of homogeneous populations of m1, m3, and m4 receptors. See Jones, S. V.; Barker, J. L.; Buckley, N. J.; Bonner, T. I; Brann, M. R., Mol. Pharmacol., 1988, 34, 421, which is specifically incorporated by reference herein. Rat heart tissue was the source of m2 muscarinic receptors.
A crude membrane fraction was obtained as follows. Confluent cultures were rinsed three times with phosphate-buffered saline, and lysed in a solution of 2 mM Tris-HCl (pH 7.1) and 1 mM EDTA for 30 min at 2° C. The cells were harvested by scraping and homogenized on a Polytron (10 sec, 75% mix).
(§1) Nuclei were removed in a low speed centrifugation (400 × g, 5 min) and a crude membrane preparation was obtained by centrifugation of the supernatant at 50,000 × g for 20 min. The resulting pellet was resuspended in the lysis buffer and recentrifuged at 50,000 × g for 20 min. Membranes were stored frozen at -70° C. until needed.
(§2) The total volume was 1 mL.
The incubation was terminated by rapid filtration over GF/B filters using a Brandel cell harvester. The filters were washed three times with ice-cold 0.9% NaCl, equilibrated in scintillation counting fluid and counted on a Beckmann LS 5801 liquid scintillation counter at 47% efficiency.
(§3) It was routinely subtracted from the total counts.

[3] = biological target: T1, m1 muscarinic receptors (Rattus norvegicus, UniProt P08482); type: binding; settings: 1.0 mM compound 26, in words
T1 sequence (P08482 1-460): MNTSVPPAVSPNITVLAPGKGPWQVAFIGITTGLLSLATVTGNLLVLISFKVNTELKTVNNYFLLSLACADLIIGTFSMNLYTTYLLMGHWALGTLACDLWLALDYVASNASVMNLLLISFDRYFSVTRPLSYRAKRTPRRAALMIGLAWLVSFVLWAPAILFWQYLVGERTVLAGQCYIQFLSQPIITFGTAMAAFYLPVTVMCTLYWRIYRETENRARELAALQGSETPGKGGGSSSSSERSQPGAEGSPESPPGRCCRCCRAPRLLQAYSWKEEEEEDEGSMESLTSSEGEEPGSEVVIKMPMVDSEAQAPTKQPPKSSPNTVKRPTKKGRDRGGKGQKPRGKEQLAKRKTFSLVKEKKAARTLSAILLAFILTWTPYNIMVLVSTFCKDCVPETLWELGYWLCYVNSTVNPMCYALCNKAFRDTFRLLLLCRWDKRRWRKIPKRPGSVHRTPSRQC
Experimental: To assay for irreversible inhibition in rat brain membranes, Scatchard analyses before and after treatment of the membranes with 26 were compared. Even a very […].
Aliquots of brain membranes were incubated with 1.0 mM of freshly dissolved 26 in phosphate-buffered saline (pH 8.0) for 60 min at room temperature, then centrifuged at 15,000 rpm for 10 min.
The resulting pellet was resuspended in 25 mL of fresh phosphate-buffered saline (pH 7.2) and centrifuged as above.

[4] = biological target: T1, m1 muscarinic receptors; assay: Inhibition of [3H]NMS binding, membranes of transfected A9L cells expressing m1 receptors; set-up: expressed in transfected cells; host or cells: A9L cells (obtained from Dr. M. Brann, NIH); settings: in favor of m1 versus m2 receptors
Experimental: The analogues were screened in binding assays using membranes from cells or tissues containing primarily single subtypes of m1 through m4 muscarinic receptors. Transfected A9L cells were used as a source of homogeneous populations of m1, m3, and m4 receptors. […] Rat heart tissue was the source of m2 muscarinic receptors.
A crude membrane fraction was obtained as follows. Confluent cultures were rinsed three times with phosphate-buffered saline, and lysed in a solution of 2 mM Tris-HCl (pH 7.1) and 1 mM EDTA for 30 min at 2° C.
as §1, §2
The incubation was terminated by rapid filtration over GF/B filters using a Brandel cell harvester.
as §3

[5] = system: gastric acid production; settings: clinical; in words; cited from earlier work
[6] = biological target: T1, m1 muscarinic receptors; assay: Irreversible labelling: [3H]NMS saturation of treated vs. control rat forebrain membranes; type: binding; settings: in words
Experimental: When incubated with membranes from rat forebrain tissue […] followed by thorough washing, compound 41a caused an unrecoverable reduction in the Bmax at m1 receptors of 90-95% (from saturation of treated vs. control membranes with [3H]NMS).

For Cl.Cl.O=C1Nc2cccnc2N(C(=O)CN2CCN(CCCl)CC2)c2ccccc21 [Compound 26, 5,11-Dihydro-11-[(4-[2-chloroethyl]-1-piperazinyl)acetyl]-6H-pyrido[2,3-b][1,4]benzodiazepine-6-one dihydrochloride], the “stability of the salt upon storage” value [1] was “at least 6 months”, the “affinity / potency at muscarinic receptors” value ([2]; qualitative) was “high binding affinity” and the receptor subtype selectivity ([2]; m1 versus m2 / among subtypes) was “retained selectivity for m1 receptors”. The “change in Kd and Bmax of [3H]NMS after preincubation” value [3] was “no change in the Kd and Bmax values”, the “irreversible inhibition of m1 receptors” value ([3]; dihydrochloride) was “not an irreversible inhibitor of m1 receptors; also recorded: lack of irreversible inhibition” and the “selectivity ratio m1 versus m2 receptors” value [4] was 4.4 fold.
For CN1CCN(CC(=O)N2c3ccccc3C(=O)Nc3cccnc32)CC1 [pirenzepine], the “inhibition of gastric acid production (literature)” value [5] is given as “useful clinically in the inhibition of gastric acid production”.
In the case of O=C1Nc2cccnc2N(C(=O)CN2CCN(CCCCCCCCCCNC(=S)Nc3cccc(N=C=S)c3)CC2)c2ccccc21 [Compound 41a, n=10, 5,11-Dihydro-11-[[4-[10-[(3-isothiocyanatophenyl)aminothiocarbonylamino]decyl]-1-piperazinyl]acetyl]-6H-pyrido[2,3-b][1,4]-benzodiazepine-6-one], the “chemical affinity labelling of m1 receptors” value [6] is reported as “potent chemical affinity label for ml receptors”.

Reference: patent US5324832A, “Muscarinic antagonists” (priority 1991, dated 1994)
